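Step 1: Grow cells in 96-well plates. Step 2: Expose to compound for 48 hours at 5 concentrations. Step 3: Interpolate endpoints linearly; if unreached, use highest concentration. At the TGI there is no net growth.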
What was measured:
Test in all cases: inhibition of tumour cell growth, NCI panel, 48 h
[1] = tested on: A498 renal
[2] = tested on: SF-268 CNS
[3] = tested on: RXF-631 renal
[4] = tested on: HOP-18 NSCLC
[5] = tested on: EKVX NSCLC
[6] = tested on: KM20L2 colon
[7] = tested on: HCT-15 colon
[8] = tested on: KM12 colon
[9] = tested on: SNB-75 CNS
[10] = tested on: UACC-257 melanoma
[11] = tested on: NCI-H522 lung
[12] = tested on: OVCAR-5 ovarian
[13] = tested on: OVCAR-3 ovarian
[14] = tested on: SNB-78 CNS
[15] = tested on: DLD-1 colon
[16] = tested on: SR leukemia
[17] = tested on: RXF 393 renal
[18] = tested on: CAKI-1 renal
[19] = tested on: NCI-H460 lung
[20] = tested on: SK-MEL-28 melanoma
[21] = tested on: HCT-116 colon
[22] = tested on: OVCAR-8 ovarian
[23] = tested on: COLO 205 colon
[24] = tested on: LOX IMVI melanoma
[25] = tested on: HOP-92 NSCLC
[26] = tested on: U251 CNS
[27] = tested on: HCC-2998 colon
[28] = tested on: ACHN renal
[29] = tested on: IGROV1 ovarian
[30] = tested on: SN12C renal
[31] = tested on: UACC-62 melanoma
[32] = tested on: MOLT-4 leukemia
[33] = tested on: TK-10 renal
[34] = tested on: HT29 colon
[35] = tested on: K-562 leukemia
[36] = tested on: 786-0 renal
[37] = tested on: LXFL 529 NSCLC
[38] = tested on: SW-620 colon
[39] = tested on: SNB-19 CNS
[40] = tested on: NCI-H23 lung
[41] = tested on: OVCAR-4 ovarian
[42] = tested on: RPMI-8226 leukemia
[43] = tested on: M19-MEL melanoma
[44] = tested on: SF-295 CNS
[45] = tested on: A549 NSCLC
[46] = tested on: SK-OV-3 ovarian
[47] = tested on: UO-31 renal
[48] = tested on: XF 498 CNS
[49] = tested on: CCRF-CEM leukemia
[50] = tested on: DMS 114 small cell lung
[51] = tested on: NCI-H226 lung
[52] = tested on: HOP-62 NSCLC
[53] = tested on: M14 melanoma
[54] = tested on: SK-MEL-5 melanoma
[55] = tested on: SF-539 CNS
[56] = tested on: MALME-3M melanoma
[57] = tested on: DMS 273 small cell lung
[58] = tested on: HL-60(TB) leukemia
[59] = tested on: SK-MEL-2 melanoma

## CS/C(C)=N/OC(=O)NCCCCNc1ccc(N=[N+]=[N-])cc1
[1]
  TGI: > 100 µM
[2]
  TGI: > 100 µM
[3]
  TGI: 31.4 µM
[4]
  TGI: > 100 µM
[5]
  TGI: > 100 µM
[6]
  TGI: > 100 µM
[7]
  TGI: > 100 µM
[8]
  TGI: > 100 µM
[9]
  TGI: > 100 µM
[10]
  TGI: > 100 µM
[11]
  TGI: 23.7 µM
[12]
  TGI: > 100 µM
[13]
  TGI: 62.9 µM
[14]
  TGI: > 100 µM
[15]
  TGI: > 100 µM
[16]
  TGI: > 100 µM
[17]
  TGI: > 100 µM
[18]
  TGI: > 100 µM
[19]
  TGI: > 100 µM
[20]
  TGI: > 100 µM
[21]
  TGI: > 100 µM
[22]
  TGI: > 100 µM
[23]
  TGI: > 100 µM
[24]
  TGI: > 100 µM
[25]
  TGI: > 100 µM
[26]
  TGI: > 100 µM
[27]
  TGI: 56.1 µM
[28]
  TGI: 97.2 µM
[29]
  TGI: > 100 µM
[30]
  TGI: > 100 µM
[31]
  TGI: 89.4 µM
[32]
  TGI: > 100 µM
[33]
  TGI: > 100 µM
[34]
  TGI: > 100 µM
[35]
  TGI: > 100 µM
[36]
  TGI: > 100 µM
[37]
  TGI: > 100 µM
[38]
  TGI: > 100 µM
[39]
  TGI: > 100 µM
[40]
  TGI: > 100 µM
[41]
  TGI: > 100 µM
[42]
  TGI: > 100 µM
[43]
  TGI: > 100 µM
[44]
  TGI: > 100 µM
[45]
  TGI: > 100 µM
[46]
  TGI: > 100 µM
[47]
  TGI: 82.4 µM
[48]
  TGI: 52 µM
[49]
  TGI: > 100 µM
[50]
  TGI: 43.2 µM
[51]
  TGI: > 100 µM
[52]
  TGI: > 100 µM
[53]
  TGI: > 100 µM
[54]
  TGI: 38.6 µM
[55]
  TGI: > 100 µM
[56]
  TGI: > 100 µM

## CC1CCC(C(C)C)C(O[C@@H]2OC(=O)C[C@@H]2Sc2ccccc2)C1 (some centres not stated)
[1]
  TGI: 74.7 µM
[2]
  TGI: > 100 µM
[3]
  TGI: 69.8 µM
[5]
  TGI: 93.6 µM
[57]
  TGI: 36.7 µM
[7]
  TGI: 59.5 µM
[8]
  TGI: 54.1 µM
[9]
  TGI: 98.3 µM
[58]
  TGI: 43.6 µM
[10]
  TGI: 39.3 µM
[12]
  TGI: 65.5 µM
[13]
  TGI: 28.8 µM
[59]
  TGI: 34.9 µM
[14]
  TGI: 73.1 µM
[15]
  TGI: > 100 µM
[17]
  TGI: 31.9 µM
[18]
  TGI: 63.6 µM
[19]
  TGI: 69.5 µM
[20]
  TGI: 85.7 µM
[21]
  TGI: 74 µM
[22]
  TGI: 45.3 µM
[23]
  TGI: 36.8 µM
[24]
  TGI: 26.3 µM
[27]
  TGI: 55.9 µM
[28]
  TGI: 41.7 µM
[29]
  TGI: > 100 µM
[30]
  TGI: 32 µM
[31]
  TGI: > 100 µM
[32]
  TGI: 32 µM
[33]
  TGI: > 100 µM
[34]
  TGI: 34.3 µM
[35]
  TGI: 42.6 µM
[36]
  TGI: 45.9 µM
[37]
  TGI: 46.1 µM
[38]
  TGI: 39.2 µM
[39]
  TGI: > 100 µM
[40]
  TGI: 96.3 µM
[41]
  TGI: 41.9 µM
[42]
  TGI: 34.7 µM
[43]
  TGI: 62.1 µM
[44]
  TGI: 54.6 µM
[45]
  TGI: 85.9 µM
[46]
  TGI: 91.7 µM
[49]
  TGI: 26.8 µM
[50]
  TGI: 46.9 µM
[52]
  TGI: 96 µM
[53]
  TGI: 59.3 µM
[54]
  TGI: 30.3 µM
[55]
  TGI: 61.8 µM
[56]
  TGI: 58.7 µM

## CC(c1ccccc1)/[N+]([O-])=C/c1ccccc1 (configuration not stated)
[1]
  TGI: > 100 µM
[2]
  TGI: > 100 µM
[4]
  TGI: > 100 µM
[5]
  TGI: > 100 µM
[57]
  TGI: > 100 µM
[6]
  TGI: > 100 µM
[8]
  TGI: > 100 µM
[9]
  TGI: > 100 µM
[58]
  TGI: > 100 µM
[10]
  TGI: > 100 µM
[11]
  TGI: > 100 µM
[12]
  TGI: > 100 µM
[13]
  TGI: > 100 µM
[14]
  TGI: > 100 µM
[15]
  TGI: > 100 µM
[17]
  TGI: > 100 µM
[19]
  TGI: > 100 µM
[20]
  TGI: > 100 µM
[21]
  TGI: > 100 µM
[22]
  TGI: > 100 µM
[23]
  TGI: > 100 µM
[24]
  TGI: > 100 µM
[25]
  TGI: > 100 µM
[26]
  TGI: > 100 µM
[27]
  TGI: > 100 µM
[28]
  TGI: > 100 µM
[29]
  TGI: > 100 µM
[32]
  TGI: > 100 µM
[33]
  TGI: > 100 µM
[34]
  TGI: > 100 µM
[35]
  TGI: > 100 µM
[37]
  TGI: > 100 µM
[38]
  TGI: > 100 µM
[39]
  TGI: > 100 µM
[40]
  TGI: > 100 µM
[42]
  TGI: > 100 µM
[43]
  TGI: > 100 µM
[44]
  TGI: > 100 µM
[45]
  TGI: > 100 µM
[46]
  TGI: > 100 µM
[47]
  TGI: > 100 µM
[48]
  TGI: > 100 µM
[49]
  TGI: > 100 µM
[50]
  TGI: > 100 µM
[52]
  TGI: > 100 µM
[55]
  TGI: > 100 µM

— PubChem BioAssay (NCI)
